{"source": "patent US9274101B2", "about": "(BIOLOG, Inc., priority 2001, dated 2016)", "key": {"E. coli MG1655": {"test_system": "E. coli MG1655", "test": "PM kinetic profiles of antimicrobials, S-O-R scoring and dendrogram", "assay_type": "cell-based, Escherichia coli", "conditions": "1× level of each antimicrobial, 7 PMs, 48 hours"}, "[1]": {"test_system": "Escherichia coli (ATCC#25922)", "conditions": "cited from earlier work"}, "[2]": {"test_system": "Staphylococcus aureus (ATCC #29213)", "conditions": "cited from earlier work"}, "[3]": {"test_system": "Staphylococcus aureus (ATCC #29213)", "test": "MIC determination in MICROPLATE testing plates, saline vs GELRITE inoculant", "assay_type": "cell-based", "conditions": "ATCC29213, 18 h, SF-P plates with resazurin, 35° C.", "description": "All three antimicrobials were obtained from Sigma. […] Kanamycin and tetracycline were dissolved in sterile water."}, "HL-60 cells [4]": {"test_system": "HL-60 cells", "test": "Chloramphenicol IC50 for cells in complete medium", "assay_type": "cell-based", "conditions": "Homo sapiens, read-out: IC50 concentration"}, "HL-60 cells [5]": {"test_system": "HL-60 cells", "test": "Effect of 1 mM chloramphenicol on HL-60 energy utilization", "assay_type": "cell-based, human", "conditions": "1 mM chloramphenicol", "description": "In this Example, methods for testing antimicrobial-induced modulation in growth of a cell are described. The antimicrobial selected for this Example is chloramphenicol. However, this application is not intended to be limited to the use of chloramphenicol, translation inhibitors or even antibiotics. HL-60 cells were cultured as described in Example 27.\nAfter washing, HL-60 cells were resuspended in DME-R. An aliquot of the cell suspension was counted by trypan blue exclusion and the cell density was adjusted to 6.67×10^5[…]. Fifty μL of DME-R containing 3 mM chloramphenicol were added to each well of the appropriate number of half area, 96-well plates, followed by 25 μL of the appropriate dilution of each test energy source. Stocks of 133 mM of each test chemical were prepared in tissue culture grade water, sterile filtered, and dilutions were prepared in a master plate so that, upon dilution in a total volume of 150 μL, the final concentrations would be 0.033 to 20 mM. Negative control wells received 25 μL of tissue culture grade water. The cells were plated at a volume of 75 μL/well, giving a final cell density of 5×10^4/well. For each plate containing energy sources and cells, a second, control plate containing only energy sources was prepared. Plates were incubated at 5% CO2, 90-100% humidity, and 37° C. for 24 hours prior to addition of the MTS/MPMS colorimetric reagent (7.5 μL/well). The color formed in each well 24 hours after addition of the colorimetric reagent, was measured with a plate reader at 490 nm with a reference wavelength of 650 nm. OD values from the control plate were subtracted from the OD values obtained with cells prior to normalizing the data to % negative control.\nData shown in Table 25 are expressed as percent negative control without chloramphenicol. […] Chloramphenicol clearly has a different effect on the cells than citrate shown in Example 33."}, "E. coli (MG1655)": {"test_system": "E. coli (MG1655)", "test": "Sensitivity in ES1, ES2, ES3 MICROPLATE panels in the presence of vancomycin or sulfamethoxazole (synergy/antagonism)", "assay_type": "cell-based, Escherichia coli"}, "[6]": {"test_system": "vancomycin-intermediate S. aureus isolates (VISA)", "conditions": "cited from earlier work"}, "A549 cells": {"test_system": "A549 cells", "test": "Glucose utilization by A549 cells in response to insulin, cross-titration", "assay_type": "cell-based", "conditions": "cross titration format (FIG. 12)", "description": "Briefly, A549 cells were suspended in RPMI-salts+RPMI-vitamins+1× Pen/Strep without amino acids at 400,000 cells/mL and dispensed in 50 uL to wells containing glucose to achieve the indicated final glucose concentrations. Insulin was then added to achieve the indicated final insulin concentrations. The cells were adapted to glucose by maintaining the cells for 2 days at 37° C. under 5% CO2-95% air (pre-incubation phase), before a redox dye mix was added. Color development was measured after maintaining the cells for an additional 5 hr at 37° C. under 5% CO2-95% air (incubation phase)."}}}
{"molecule": "CC1(C)S[C@@H]2[C@H](NC(=O)[C@H](N)c3ccccc3)C(=O)N2[C@H]1C(=O)O", "note": "[Ampicillin, ampicillin]", "values": [{"measurement": "position in dendrogram of PM response profiles (FIG. 9)", "setting": "E. coli MG1655", "result": "cluster"}, {"measurement": "MIC, NCCLS Expected Result", "setting": "[1]", "result": "2 to 8", "unit": "µg/mL"}, {"measurement": "MIC, NCCLS Expected Results", "setting": "[2]", "result": "0.25 to 1", "unit": "µg/mL"}, {"measurement": "MIC", "setting": "[3]; diluent GELRITE (0.4%)", "result": "1 to 2", "unit": "µg/mL"}, {"measurement": "MIC", "setting": "[3]; diluent Saline", "result": "1 to 4", "unit": "µg/mL"}]}
{"molecule": "O=C(N[C@H](CO)[C@H](O)c1ccc([N+](=O)[O-])cc1)C(Cl)Cl", "note": "[chloramphenicol]", "values": [{"measurement": "IC50", "setting": "HL-60 cells [4]", "result": 1000, "unit": "µM"}, {"measurement": "position in dendrogram of PM response profiles (FIG. 9)", "setting": "E. coli MG1655", "result": "cluster"}, {"measurement": "effect on signal compared to untreated cells", "setting": "HL-60 cells [5]", "result": "severe reduction in signal in almost all conditions"}]}
{"molecule": "CN[C@H](CC(C)C)C(=O)N[C@H]1C(=O)N[C@@H](CC(N)=O)C(=O)N[C@H]2C(=O)N[C@H]3C(=O)N[C@H](C(=O)N[C@H](C(=O)O)c4cc(O)cc(O)c4-c4cc3ccc4O)[C@H](O)c3ccc(c(Cl)c3)Oc3cc2cc(c3O[C@@H]2O[C@H](CO)[C@@H](O)[C@H](O)[C@H]2O[C@H]2C[C@](C)(N)[C@H](O)[C@H](C)O2)Oc2ccc(cc2Cl)[C@H]1O", "note": "[vancomycin]", "values": [{"measurement": "change of sensitivity to the panel compound", "setting": "E. coli (MG1655)", "result": "transient increased sensitivity"}, {"measurement": "minimum inhibitory concentration [MIC]", "setting": "[6]", "result": "8 to 16", "unit": "µg/mL"}]}
{"molecule": "insulin", "values": [{"measurement": "effect on glucose depletion (dye reduction)", "setting": "A549 cells", "result": "insulin dependent depletion of a glucose substrate"}]}
